Patent US9328083B2, “2-aminated methylene or 2-esterified methylene tanshinone derivatives, and preparation method and application thereof” (HANGZHOU BENSHENG PHARMACEUTICAL CO., LTD., priority 2011, dated 2016)
≈ marks a conversion by molar mass, not a printed value.

What was measured:
[1] = tested on: PANC-1 (pancreatic cancer); assay: MTT growth inhibition of human solid tumor cells, 72 h; format: cell-based; conditions: for IC50 / IC90: Homo sapiens, PANC-1, 72 h; for IC50: read-out: IC50; for IC90: read-out: IC90
Description: (§1) Hep-2 (laryngeal carcinoma), A549 (human lung cancer), CaES-17 (esophageal cancer cell), PC-3 (prostate cancer), CNE (nasopharyngeal carcinoma cell), and SK-OV-3 (ovarian cancer cell), all of which are purchased from China Center For Type Culture Collection; RKO (human colon adenocarcinoma cell), MGC 803 (human gastric cancer cell), MG63 (osteosarcoma) and U87 MG (malignant glioma cell), all of which are purchased from Fuxiang Bio-tech Co. Ltd., Shanghai, China; PANC-1 (pancreatic cancer), Hep G2 (human liver cancer cell), Becap37 (human breast cancer cell) and Hela (human cervical cancer cell), all of which are donated by Cancer Research Institute of Zhejiang University, China.
(§2) The standard sample of tanshinone I (TA) and the 2-aminated methylene or 2-esterified methylene tanshinone I derivatives of the present invention are sufficiently dissolved with dimethylsulfoxide to produce a stock solution of 10 mg/mL, which is refrigerated at 4° C. and stored in dark, and is diluted with a cell culture medium to the desired concentration prior to experimentation.
(§3) Obtaining 4000 well-growing human solid tumor cells and inoculating them into wells of a 96-well cell culture plate. The culture medium is DMEM High Glucose cell culture medium containing 10% fetal bovine serum. The plate is placed in a carbon dioxide cell incubator (5% CO2) at 37° C. and incubated for 24 hours. After adding the 2-aminated methylene or 2-esterified methylene tanshinone I derivatives of different concentrations and mixing uniformly, the plate is placed in a carbon dioxide cell incubator (5% CO2) at 37° C. and incubated for 72 hours. Then the viable cell concentration is determined by the MTT method.

[2] = tested on: A549 (human lung cancer); assay: as above; format: cell-based; conditions: Homo sapiens, A549, 72 h; for IC50: read-out: IC50; for IC90: read-out: IC90
Description: as §1, §2, §3

[3] = tested on: SK-OV-3 (ovarian cancer cell); assay: as above; format: cell-based; conditions: Homo sapiens, SK-OV-3, 72 h; for IC50: read-out: IC50; for IC90: read-out: IC90
Description: as §1, §2, §3

[4] = tested on: RKO (human colon adenocarcinoma cell); assay: as above; format: cell-based; conditions: Homo sapiens; for IC50: read-out: IC50; for IC90: read-out: IC90
Description: as §1, §2, §3

[5] = tested on: MG63 (osteosarcoma); assay: as above; format: cell-based; conditions: Homo sapiens, MG-63, 72 h; for IC50: read-out: IC50; for IC90: read-out: IC90
Description: as §1, §2, §3

[6] = tested on: Hep G2 (human liver cancer cell); assay: as above; format: cell-based; conditions: Homo sapiens, HepG2, Hep G2, 72 h; for IC50: read-out: IC50; for IC90: read-out: IC90
Description: as §1, §2, §3

[7] = tested on: Hep-2 (laryngeal carcinoma); assay: as above; format: cell-based; conditions: Homo sapiens, HEp-2, 72 h; for IC50: read-out: IC50; for IC90: read-out: IC90
Description: as §1, §2, §3

[8] = tested on: MGC 803 (human gastric cancer cell); assay: as above; format: cell-based; conditions: Homo sapiens, MGC-803, 72 h; for IC50: read-out: IC50; for IC90: read-out: IC90
Description: as §1, §2, §3

[9] = tested on: CNE (nasopharyngeal carcinoma cell); assay: as above; format: cell-based; conditions: Homo sapiens; for IC50: read-out: IC50; for IC90: read-out: IC90
Description: as §1, §2, §3

[10] = tested on: U87 MG (malignant glioma cell); assay: as above; format: cell-based; conditions: Homo sapiens, U-87 MG, U87-MG, 72 h; for IC50: read-out: IC50; for IC90: read-out: IC90
Description: as §1, §2, §3

[11] = tested on: Hela (human cervical cancer cell); assay: as above; format: cell-based; conditions: Homo sapiens, HeLa, 72 h; for IC50: read-out: IC50; for IC90: read-out: IC90
Description: as §1, §2, §3

[12] = tested on: PC-3 (prostate cancer); assay: as above; format: cell-based; conditions: Homo sapiens, PC-3, 72 h; for IC50: read-out: IC50; for IC90: read-out: IC90
Description: as §1, §2, §3

[13] = tested on: CaES-17 (esophageal cancer cell); assay: as above; format: cell-based; conditions: for IC50 / IC90: Homo sapiens, CaEs17, CaEs-17, 72 h; for IC50: read-out: IC50; for IC90: read-out: IC90
Description: as §1, §2, §3

[14] = tested on: Becap37 (human breast cancer cell); assay: as above; format: cell-based; conditions: Homo sapiens, Becap-37, 72 h; for IC50: read-out: IC50; for IC90: read-out: IC90
Description: as §1, §2, §3

[15] = tested on: K562/adr (drug-resistant, chronic myeloid leukemia, CML); assay: MTT growth inhibition of leukemia cells, 72 h; format: cell-based, human; conditions: Homo sapiens, K562/Adr; for IC50: read-out: IC50; for IC90: read-out: IC90
Source text: (§4) Leukemia cell lines: leukemia cell lines: K562/adr (drug-resistant, chronic myeloid leukemia, CML), NB4 (acute promyelocytic leukemia, AML), Kasumi-1 (acute myeloid leukemia M2 type, AML-M2), and Jurkat (acute lymphoblastic leukemia, ALL), all of which are donated by Cancer Research Institute of Zhejiang University, China; and H9 (acute lymphoblastic leukemia, ALL), which is purchased from China Center for Type Culture Collection (CCTCC).
as §2
(§5) Obtaining 6000 well-growing leukemia cells and inoculating them into wells of a 96-well cell culture plate. The culture medium is the RPMI-1640 cell culture medium containing 10% fetal bovine serum. After adding on the second day the 2-aminated methylene or 2-esterified methylene tanshinone I derivatives of different concentrations and mixing uniformly, placing the plate in a carbon dioxide cell incubator (5% CO2) at 37° C. and incubated for 72 hours. Then the viable cell concentration is determined by MTT method.

[16] = tested on: H9 (acute lymphoblastic leukemia, ALL); assay: MTT growth inhibition of leukemia cells, 72 h; format: cell-based, human; conditions: Homo sapiens, H9, 72 h; for IC50: read-out: IC50; for IC90: read-out: IC90
Source text: as §4, §2, §5

[17] = tested on: Jurkat (acute lymphoblastic leukemia, ALL); assay: MTT growth inhibition of leukemia cells, 72 h; format: cell-based, human; conditions: for IC50 / IC90: Homo sapiens, 72 h; for IC50: read-out: IC50; for IC90: read-out: IC90
Source text: as §4, §2, §5

[18] = tested on: Kasumi-1 (acute myeloid leukemia M2 type, AML-M2); assay: MTT growth inhibition of leukemia cells, 72 h; format: cell-based, human; conditions: Homo sapiens, Kasumi-1, 72 h; for IC50: read-out: IC50; for IC90: read-out: IC90
Source text: as §4, §2, §5

[19] = tested on: NB4 (acute promyelocytic leukemia, AML); assay: MTT growth inhibition of leukemia cells, 72 h; format: cell-based, human; conditions: Homo sapiens, NB4, 72 h; for IC50: read-out: IC50; for IC90: read-out: IC90
Source text: as §4, §2, §5

[20] = tested on: RPMI8226 (multiple myeloma); assay: MTT growth inhibition of multiple myeloma cells, 72 h; format: cell-based, human; conditions: Homo sapiens, RPMI 8226, 72 h; for IC50: read-out: IC50; for IC90: read-out: IC90
Description: Myeloma cell lines: RPMI8226 (multiple myeloma), purchased from Fuxiang Bio-tech Co. Ltd., Shanghai, China.
as §2
as §5, with “myeloma” for “leukemia”, “cells as above” for “cells”, “1640” for “RPMI-1640”, “adding” for “adding on the second day”

Cc1c(CN2CCCN(C)CC2)oc2c1C(=O)C(=O)c1c-2ccc2c(C)cccc12 [BS-TA-B12]
IC50 [1]: 1.06 µg/mL (≈ 2.63 µM) | IC90 [1]: 4.16 µg/mL (≈ 10.3 µM) | IC50 [2]: 1.65 µg/mL (≈ 4.1 µM) | IC90 [2]: 4.33 µg/mL (≈ 10.8 µM) | IC50 [3]: 2.53 µg/mL (≈ 6.29 µM) | IC90 [3]: 3.84 µg/mL (≈ 9.54 µM) | IC50 [4]: 0.7 µg/mL (≈ 1.74 µM) | IC90 [4]: 5.26 µg/mL (≈ 13.1 µM) | IC50 [5]: 3.37 µg/mL (≈ 8.37 µM) | IC90 [5]: 5.49 µg/mL (≈ 13.6 µM) | IC50 [6]: 3.8 µg/mL (≈ 9.44 µM) | IC90 [6]: 7.96 µg/mL (≈ 19.8 µM) | IC50 [7]: 4.01 µg/mL (≈ 9.96 µM) | IC90 [7]: 9.08 µg/mL (≈ 22.6 µM) | IC50 [8]: 2.48 µg/mL (≈ 6.16 µM) | IC90 [8]: 5.05 µg/mL (≈ 12.5 µM) | IC50 [9]: 0.45 µg/mL (≈ 1.12 µM) | IC90 [9]: 0.62 µg/mL (≈ 1.54 µM) | IC50 [10]: 1.16 µg/mL (≈ 2.88 µM) | IC90 [10]: 3.4 µg/mL (≈ 8.45 µM) | IC50 [11]: 1.46 µg/mL (≈ 3.63 µM) | IC90 [11]: 3.58 µg/mL (≈ 8.89 µM) | IC50 [12]: 9.3 µg/mL (≈ 23.1 µM) | IC90 [12]: 11.2 µg/mL (≈ 27.8 µM) | IC50 [13]: 0.73 µg/mL (≈ 1.81 µM) | IC90 [13]: 1.97 µg/mL (≈ 4.89 µM) | IC50 [14]: 3.34 µg/mL (≈ 8.3 µM) | IC90 [14]: 7.38 µg/mL (≈ 18.3 µM) | IC50 [15]: 1.5 µg/mL (≈ 3.73 µM) | IC90 [15]: 2.79 µg/mL (≈ 6.93 µM) | IC50 [16]: 4.11 µg/mL (≈ 10.2 µM) | IC90 [16]: 10.5 µg/mL (≈ 26.1 µM) | IC50 [17]: 1.78 µg/mL (≈ 4.42 µM) | IC90 [17]: 5.91 µg/mL (≈ 14.7 µM) | IC50 [18]: 0.89 µg/mL (≈ 2.21 µM) | IC90 [18]: 1.9 µg/mL (≈ 4.72 µM) | IC50 [19]: 0.94 µg/mL (≈ 2.34 µM) | IC90 [19]: 1.9 µg/mL (≈ 4.72 µM) | IC50 [20]: 3.72 µg/mL (≈ 9.24 µM) | IC90 [20]: 7.13 µg/mL (≈ 17.7 µM)

Cc1c(CN(C)CCO)oc2c1C(=O)C(=O)c1c-2ccc2c(C)cccc12 [BS-TA-B17]
IC50 [1]: 0.27 µg/mL (≈ 0.743 µM) | IC90 [1]: 2.6 µg/mL (≈ 7.15 µM) | improvement of anti-PANC-1 activity as compared with tanshinone I ([1]; PANC-1, vs tanshinone I): more than 10 fold | IC50 [2]: 0.83 µg/mL (≈ 2.28 µM) | IC90 [2]: 3.13 µg/mL (≈ 8.61 µM) | IC50 [3]: 1.44 µg/mL (≈ 3.96 µM) | IC90 [3]: 1.97 µg/mL (≈ 5.42 µM) | IC50 [4]: 0.125 µg/mL (≈ 0.344 µM) | IC90 [4]: 1.3 µg/mL (≈ 3.58 µM) | IC50 [5]: 0.78 µg/mL (≈ 2.15 µM) | IC90 [5]: 1.76 µg/mL (≈ 4.84 µM) | IC50 [6]: 0.56 µg/mL (≈ 1.54 µM) | IC90 [6]: 1.82 µg/mL (≈ 5.01 µM) | IC50 [7]: 0.87 µg/mL (≈ 2.39 µM) | IC90 [7]: 2.79 µg/mL (≈ 7.68 µM) | IC50 [8]: 0.37 µg/mL (≈ 1.02 µM) | IC90 [8]: 2.94 µg/mL (≈ 8.09 µM) | IC50 [9]: 1.4 µg/mL (≈ 3.85 µM) | IC90 [9]: 3 µg/mL (≈ 8.26 µM) | IC50 [10]: 0.76 µg/mL (≈ 2.09 µM) | IC90 [10]: 1.82 µg/mL (≈ 5.01 µM) | IC50 [11]: 0.67 µg/mL (≈ 1.84 µM) | IC90 [11]: 1.8 µg/mL (≈ 4.95 µM) | IC50 [12]: 0.63 µg/mL (≈ 1.73 µM) | IC90 [12]: 2 µg/mL (≈ 5.5 µM) | improvement of anti-CaES-17 activity as compared with tanshinone I ([13]; CaES-17, vs tanshinone I): more than 7 fold | IC50 [13]: 0.45 µg/mL (≈ 1.24 µM) | IC90 [13]: 0.91 µg/mL (≈ 2.5 µM) | IC50 [14]: 0.76 µg/mL (≈ 2.09 µM) | IC90 [14]: 1.77 µg/mL (≈ 4.87 µM) | IC50 [15]: 0.31 µg/mL (≈ 0.853 µM) | IC90 [15]: 0.86 µg/mL (≈ 2.37 µM) | IC50 [16]: 0.45 µg/mL (≈ 1.24 µM) | IC90 [16]: 0.96 µg/mL (≈ 2.64 µM) | IC50 [17]: 0.16 µg/mL (≈ 0.44 µM) | IC90 [17]: 0.36 µg/mL (≈ 0.991 µM) | improvement of anti-Jurkat activity as compared with tanshinone I ([17]; vs tanshinone I): more than 10 fold | IC50 [18]: 0.12 µg/mL (≈ 0.33 µM) | IC90 [18]: 0.23 µg/mL (≈ 0.633 µM) | IC50 [19]: 0.14 µg/mL (≈ 0.385 µM) | IC90 [19]: 0.41 µg/mL (≈ 1.13 µM) | IC50 [20]: 0.39 µg/mL (≈ 1.07 µM) | IC90 [20]: 0.8 µg/mL (≈ 2.2 µM)
